According to patent US20260216216A1, “(N-ALKYLDIHYDROL-2H-OXAZINYL)-CANNABIDIOL AS ANTI-PROLIFERATIVE AGENT AND PROCESS FOR PREPARATION THEREOF” (COUNCIL OF SCIENTIFIC AND INDUSTRIAL RESEARCH, priority 2022, published 2026):
Where two headings read alike, the source gives them in different places.

Assays:
[1] = system: HCT-116 (colorectal cancer) cell line; assay: SRB in-vitro cytotoxicity assay, HCT-116; conditions: Homo sapiens
Procedure: (§1) All the ring annulated analogues of cannabinoid were evaluated for their cytotoxicity against number of human cancer cell lines. To evaluate the in-vitro cytotoxicity, a sulphorhodamine B (SRB) assay was carried out. SRB is a negatively charged pink aminoxanthine dye that binds to the basic amino acid of cells in mildly acidic conditions and is removed in basic conditions. […] When cells reached 60-70% confluency, trypsinized and seeded in 96 well plates according to their inoculation density and incubated for 24 hours to attain their proper morphology. Next-day cells were again incubated for 48 hours with test compounds or paclitaxel (positive control). Next, cells were fixed with 50% of ice-cold TCA for 1 hours, washed with distilled water, and kept for air drying. Air-dried plates were then stained with 0.4% SRB dye for 30 minutes and subsequently with water and 1% v/v glacial acetic acid were then kept for air drying. […] The viability of cells is measured based on bound dye after fixation, which is measured by absorbance at 540 nm.

[2] = system: MCF-7 (breast cancer) cell line; assay: SRB in-vitro cytotoxicity assay, MCF-7; conditions: Homo sapiens
Procedure: as §1

[3] = system: A549 (lung cancer) cell line; assay: SRB in-vitro cytotoxicity assay, A549; conditions: Homo sapiens
Procedure: as §1

[4] = system: Mia-PaCa (pancreatic cancer) cell line; assay: SRB in-vitro cytotoxicity assay, Mia-PaCa; conditions: Homo sapiens
Procedure: as §1

[5] = system: PC-3 (prostate cancer) cell line; assay: SRB in-vitro cytotoxicity assay, PC-3; conditions: Homo sapiens
Procedure: as §1

[6] = system: U251 (glioblastoma) cell line; assay: SRB in-vitro cytotoxicity assay, U251; conditions: Homo sapiens, U-251, 48 h, read-out: Cytotoxicity (in vitro cell inhibition) U251
Procedure: as §1

in vitro = conditions: human
Procedure: as §1

[7] = HCT-116, 48 h, read-out: Cytotoxicity (in vitro cell inhibition) HCT-116
[8] = HCT-116, read-out: inhibition against HCT-116 cell lines
[9] = MCF7, 48 h, read-out: Cytotoxicity (in vitro cell inhibition) MCF-7
[10] = MCF7, read-out: inhibition against MCF-7 cell lines
[11] = A549, 48 h, read-out: Cytotoxicity (in vitro cell inhibition) A549
[12] = A549, read-out: inhibition against A549 cell lines
[13] = MIA PaCa-2, 48 h, read-out: Cytotoxicity (in vitro cell inhibition) Mia-PaCa
[14] = 48 h, read-out: Cytotoxicity (in vitro cell inhibition) PC3
[15] = PC-3, read-out: inhibition against PC3 cell lines

SMILES	inhibition at 20 µM [1, 7]	inhibition at 20 µM [1, 8]	inhibition at 20 µM [2, 9]	inhibition at 20 µM [2, 10]	inhibition at 20 µM [3, 11]	inhibition at 20 µM [3, 12]	inhibition at 20 µM [4, 13]	inhibition at 20 µM [5, 14]	inhibition at 20 µM [5, 15]	inhibition at 20 µM [6]	inhibition at 20 µM (in vitro)	inhibition at 20 µM ([4]; MIA PaCa-2, read-out: inhibition against Mia-PaCa cell lines)	inhibition at 48 h, 20 µM (in vitro)
C=C(C)[C@@H]1CCC(C)=C[C@H]1c1c(O)cc(CCCCC)c2c1OCN(C1CC1)C2 [Ig, (N-cyclopropyldihydrol-2H-oxazinyl)-cannabidiol]	50 to 70%	> 50%	50 to 70%	> 50%	50 to 70%	> 50%	< 50%	50 to 70%	> 50%	< 50%	< 50%	–	–
C=C(C)[C@@H]1CCC(C)=C[C@H]1c1c(O)cc(CCCCC)c2c1OCN(C1CCCCCC1)C2 [Ii, (N-cycloheptyldihydrol-2H-oxazinyl)-cannabidiol]	50 to 70%	> 50%	> 70%	> 70%	> 70%	> 70%	> 70%	50 to 70%	> 50%	< 50%	–	> 70%	< 50%
C=C(C)[C@@H]1CCC(C)=C[C@H]1c1c(O)cc(CCCCC)c2c1OCN(c1ccccc1)C2 [Ij, (N-phenyldihydrol-2H-oxazinyl)-cannabidiol]	< 50%	–	< 50%	–	< 50%	–	< 50%	< 50%	–	< 50%	–	–	< 50%
C=C(C)[C@@H]1CCC(C)=C[C@H]1c1c(O)cc(CCCCC)c2c1OCN(c1ccc(C(C)C)cc1)C2 [Ik, (N-isopropylphenyldihydrol-2H-oxazinyl)-cannabidiol]	< 50%	–	< 50%	–	< 50%	–	< 50%	< 50%	–	< 50%	–	–	< 50%
C=C(C)[C@@H]1CCC(C)=C[C@H]1c1c(O)cc(CCCCC)c2c1OCN(c1ccc(OC(F)(F)F)cc1)C2 [Il, (N-trifluoromethoxyphenyldihydrol-2H-oxazinyl)-cannabidiol]	< 50%	–	< 50%	–	< 50%	–	< 50%	< 50%	–	< 50%	–	–	< 50%
C=C(C)[C@@H]1CCC(C)=C[C@H]1c1c(O)cc(CCCCC)c2c1OCN(c1cnc3ccccc3c1)C2 [Im, (N-quinolinedihydrol-2H-oxazinyl)-cannabidiol]	< 50%	–	< 50%	–	< 50%	–	< 50%	< 50%	–	< 50%	–	–	< 50%
C=C(C)[C@@H]1CCC(C)=C[C@H]1c1c(O)cc(CCCCC)c2c1OCN(Cc1ccccc1)C2 [In, (N-benzyldihydrol-2H-oxazinyl)-cannabidiol]	–	> 50%	< 50%	–	–	> 50%	< 50%	–	> 50%	< 50%	–	–	< 50%
C=C(C)[C@@H]1CCC(C)=C[C@H]1c1c(O)cc(CCCCC)c2c1OCN(c1ccccc1F)C2 [Io, (N-2-fluorophenyldihydrol-2H-oxazinyl)-cannabidiol]	< 50%	–	< 50%	–	< 50%	–	< 50%	< 50%	–	< 50%	–	–	< 50%
